The values below come from US5849587A, “Method of inhibiting viral replication in eukaryotic cells and of inducing apoptosis of virally-infected cells” (Cornell Research Foundation, Inc., priority 1995, dated 1998).

One test concerns the target T1, Deoxyhypusyl hydroxylase (Homo sapiens, UniProt Q9BU89).
T1 construct: endogenous in cells
T1 sequence (Q9BU89 1-302): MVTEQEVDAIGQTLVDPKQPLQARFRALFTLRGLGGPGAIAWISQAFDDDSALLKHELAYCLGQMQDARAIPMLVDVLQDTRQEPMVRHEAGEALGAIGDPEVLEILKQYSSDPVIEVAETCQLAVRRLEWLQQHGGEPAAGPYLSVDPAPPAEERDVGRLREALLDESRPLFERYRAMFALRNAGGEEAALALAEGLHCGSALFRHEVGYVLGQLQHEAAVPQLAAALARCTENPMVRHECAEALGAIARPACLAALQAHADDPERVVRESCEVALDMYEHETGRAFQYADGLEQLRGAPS
Description: Cellular deoxyhypusyl hydroxylase (hypusine formation) inhibition, human B-cells and human smooth muscle cells. Format: cell-based. The following applies: concentration for half-maximal inhibition. As for the experimental part: (§1) The cell-free enzyme assay was performed to test a pilot peptidomimetic which can be equipped with hydroxypyridone warheads. The cell culture studies were performed to establish the inherent inhibitory potency of such hydroxypyridones.
DOHH Assay. The intracellular conversion of peptide-bound deoxyhypusine to peptidyl hypusine was determined after preincubation of human T lymphocyte-derived cells (i.e. ACH-2) [Clouse et al., J. Immunol. 142, 431-438 (1989), which is hereby incorporated by reference] with the hypusine inhibitors mimosine and HK-1 for 60 minutes, followed by labeling for 21 hours with ^3 H-spermidine (3.75 μCi/ml) in wells containing 3×10^6 cells suspended in 8 ml of serum-supplemented and antibiotic-containing RPMI 1640 medium. Cells were then split into two groups, one of them being harvested immediately to assess degree of DOHH inhibition, and the other harvested after transfer of the cells into inhibitor-free medium for 2 hours to measure resumption of DOHH activity. Harvesting consisted in precipitation of washed cells with 10% TCA containing 1 mM each of putrescine, spermidine, and spermine. Cellular proteins from each sample were then hydrolyzed in 6N HCl at 110° C. for 16 hours. The hydrolysate was analyzed for labeled amino acids on an amino acid analyzer by published methods [Park et al., J. Biol. Chem., 257, 7217-7222 (1982), which is hereby incorporated by reference]. The retention times of hypusine and deoxyhypusine were determined from standards. Similar studies were performed in human B-cells and human smooth muscle cells.
The concentration required for half-maximal inhibition (ID50) of the cellular enzyme activity is identified for each compound.

Test [1] has as its system deoxyhypusyl hydroxylase (DOHH). The test can be described thus: Cell-free DOHH assay with purified enzyme and unhydroxylated eIF-5A precursor. The test is classed as biochemical. As to conditions: purified rat enzyme, unhydroxylated eIF-5A, FIG. 4B. As for the experimental part: The graph gives the chromatographic profile of metabolically labeled hypusine/deoxyhypusine obtained after incubation of the purified rat enzyme with unhydroxylated eIF-5A in the absence (open squares) and presence (closed squares) of mimetic III. […] Peptides of appropriate structure or peptidomimetics like mimetic III can serve as "carriers" for a reactive moiety termed "warhead" that, by virture of its attachment to the carrier, becomes precisely oriented to interact optimally with the active site metal ion of DOHH. In the case of mimetic III, such a warhead moiety can be attached at the site indicated by the asterisk in FIG. 4A.
as §1
DOHH Assay. Enzyme activity was purified and determined, as described by Abbruzzese et al., J Biol Chem 261:3085-9 (1986), which is hereby incorporated by reference. Briefly, the enzyme is offered as labeled deoxyhypusine-containing eIF-5A precursor, and, following standard incubation conditions, the conversion into hypusine residues is measured by chromatographic amino acid separation of the hydrolyzed proteins. […] Biophys. Acta, 1221, 115-124 (1994), which is hereby incorporated by reference]. […]

`CCc1c(O)c(=O)ccn1CC` [HK-2]: on Deoxyhypusyl hydroxylase, the “Deoxyhypusyl hydroxylase ID50 (cellular)” value came out at 50. Same read-out and setting: then `C=CCn1ccc(=O)c(O)c1C` [HK-16], with 50.

Turning to `COCCn1ccc(=O)c(O)c1C` [HK-15], the “Deoxyhypusyl hydroxylase ID50 (cellular)” value at Deoxyhypusyl hydroxylase is listed as 60. In the case of `CCCn1ccc(=O)c(O)c1C` [HK-27], the “Deoxyhypusyl hydroxylase ID50 (cellular)” value at Deoxyhypusyl hydroxylase is listed as 50.

Take `CCn1ccc(=O)c(O)c1C` [HK-26]: the “Deoxyhypusyl hydroxylase ID50 (cellular)” value on Deoxyhypusyl hydroxylase was found to be 58. With `NC(CO)C1CCC(=O)NC(CO)C(=O)N(C(Cc2ccccc2)C(=O)O)NC1=O` (stereo not shown) [mimetic III], the “deoxyhypusine-to-hypusine conversion in presence of compound” value in test [1] is listed as “clearly reduced”; in test [1] (listed as mimetic of Formula III), “the deoxyhypusine-to-hypusine conversion was suppressed”.
